Tests used:
Type in all cases: functional, cell-based
P388 = test: Cytotoxicity against mouse P388 cells by MTT assay
A549 = test: Cytotoxicity against human A549 cells by MTT assay
HL-60 = test: Cytotoxicity against human HL60 cells by MTT assay
MCF7 = test: Cytotoxicity against human MCF7 cells by MTT assay

Row | Structure (SMILES) | IC50 (P388) [µM] | IC50 (A549) [µM] | IC50 (HL-60) [µM] | IC50 (MCF7) [µM]
1 | COc1ccc2c(c1)C(=O)c1c(NCCc3ccc(O)cc3)c(OC)cc3ccnc-2c13 [DAURIOXOISOPORPHINE A] | 30.5 | 8.8 | > 50 | 3
2 | COc1ccc2c(c1)C(=O)c1c(N)c(OC)c(OC)c3ccnc-2c13 [DAURIOXOISOPORPHINE B] | 9.6 | > 50 | > 50 | 6.2
3 | COc1cc([C@@H]2c3cc4c(cc3[C@@H](O[C@@H]3O[C@@H]5CO[C@@H](C)O[C@H]5[C@H](O)[C@H]3O)[C@H]3COC(=O)[C@H]23)OCO4)cc(OC)c1O [ETOPOSIDE] | 0.1 | 0.5 | 5.4 | 12.3
